From the supplement of paper PMC13207355
Counter-ions that a name gives are not always drawn.

Legend:
Details in all cases: exposure time: 72 h
E21 [1] = patient-derived glioblastoma stem cells of mesenchymal subtype; assay: phenotypic distance (Euclidean, principal components) from DMSO controls (arbitrary units); higher = stronger morphological change
E34 [2] = patient-derived glioblastoma stem cells of proneural subtype; assay: as above
E13 [3] = patient-derived glioblastoma stem cells of classical subtype; assay: as above
E57 [4] = patient-derived glioblastoma stem cells of mesenchymal subtype; assay: as above
E28 [5] = patient-derived glioblastoma stem cells of classical subtype; assay: as above
E31 [6] = patient-derived glioblastoma stem cells of proneural subtype; assay: as above
FT3469 [7] = normal neural stem cell line; assay: as above
E21 [8] = assay: surviving fraction (nuclei count normalised to DMSO); higher = more cells surviving (less toxic)
E34 [9] = assay: as above
E13 [10] = assay: as above
E57 [11] = assay: as above
E28 [12] = assay: as above
E31 [13] = assay: as above
FT3469 [14] = assay: as above
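For phenotypic distance (Euclidean, principal components) from DMSO controls in this document: cell Painting imaging in 384-well plates, CellProfiler features reduced to at least 20 principal components, Euclidean distance versus same-plate DMSO vehicle wells (0.1% v/v), median over six images per well.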
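For surviving fraction (nuclei count normalised to DMSO) in this document: nuclei counted by high-content imaging of Hoechst-stained cells in laminin-coated 384-well plates, relative to 0.1% DMSO vehicle wells, with staurosporine as cell-death control.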

COc1cccc2c1C(=O)c1c(O)c3c(c(O)c1C2=O)C[C@@](O)(C(C)=O)C[C@@H]3O[C@H]1C[C@H](N)[C@H](O)[C@H](C)O1 [Daunorubicin hydrochloride]
Details | phenotypic distance | surviving fraction
E13 [3], 4.1 nM | 3.33 | –
E13 [3], 12.3 nM | 4.36 | –
E13 [3], 37 nM | 6.02 | –
E13 [3], 111.1 nM | 5.64 | –
E13 [3], 333.3 nM | 5.87 | –
E13 [3], 1000 nM | 7.81 | –
E13 [3], 3000 nM | 5.88 | –
E13 [10], 4.1 nM | – | 0.54
E13 [10], 12.3 nM | – | 0.512
E13 [10], 37 nM | – | 0.342
E13 [10], 111.1 nM | – | 0.381
E13 [10], 333.3 nM | – | 0.216
E13 [10], 1000 nM | – | 0.0373
E13 [10], 3000 nM | – | 0.0142
E21 [1], 4.1 nM | 1.95 | –
E21 [1], 12.3 nM | 4.33 | –
E21 [1], 37 nM | 6.78 | –
E21 [1], 111.1 nM | 5.96 | –
E21 [1], 333.3 nM | 5.7 | –
E21 [1], 1000 nM | 6.37 | –
E21 [1], 3000 nM | 6.06 | –
E21 [8], 4.1 nM | – | 0.844
E21 [8], 12.3 nM | – | 0.597
E21 [8], 37 nM | – | 0.451
E21 [8], 111.1 nM | – | 0.343
E21 [8], 333.3 nM | – | 0.151
E21 [8], 1000 nM | – | 0.0632
E21 [8], 3000 nM | – | 0.055
E28 [5], 4.1 nM | 1.76 | –
E28 [5], 12.3 nM | 2.56 | –
E28 [5], 37 nM | 2.56 | –
E28 [5], 111.1 nM | 3.09 | –
E28 [5], 333.3 nM | 3.78 | –
E28 [5], 1000 nM | 3.13 | –
E28 [5], 3000 nM | 5.54 | –
E28 [12], 4.1 nM | – | 0.408
E28 [12], 12.3 nM | – | 0.419
E28 [12], 37 nM | – | 0.339
E28 [12], 111.1 nM | – | 0.251
E28 [12], 333.3 nM | – | 0.185
E28 [12], 1000 nM | – | 0.187
E28 [12], 3000 nM | – | 0.11
E31 [6], 4.1 nM | 2.77 | –
E31 [6], 12.3 nM | 2.46 | –
E31 [6], 37 nM | 2.46 | –
E31 [6], 111.1 nM | 4.45 | –
E31 [6], 333.3 nM | 4.56 | –
E31 [6], 1000 nM | 7.33 | –
E31 [6], 3000 nM | 5.46 | –
E31 [13], 4.1 nM | – | 0.51
E31 [13], 12.3 nM | – | 0.293
E31 [13], 37 nM | – | 0.266
E31 [13], 111.1 nM | – | 0.134
E31 [13], 333.3 nM | – | 0.0818
E31 [13], 1000 nM | – | 0.0315
E31 [13], 3000 nM | – | 0.0944
E34 [2], 4.1 nM | 1.67 | –
E34 [2], 12.3 nM | 4.29 | –
E34 [2], 37 nM | 4.68 | –
E34 [2], 111.1 nM | 3.18 | –
E34 [2], 333.3 nM | 2.84 | –
E34 [2], 1000 nM | 4.23 | –
E34 [2], 3000 nM | 3.57 | –
E34 [9], 4.1 nM | – | 0.644
E34 [9], 12.3 nM | – | 0.611
E34 [9], 37 nM | – | 0.591
E34 [9], 111.1 nM | – | 0.445
E34 [9], 333.3 nM | – | 0.471
E34 [9], 1000 nM | – | 0.259
E34 [9], 3000 nM | – | 0.0925
E57 [4], 4.1 nM | 3.27 | –
E57 [4], 12.3 nM | 6.2 | –
E57 [4], 37 nM | 9.2 | –
E57 [4], 111.1 nM | 7.86 | –
E57 [4], 333.3 nM | 6.42 | –
E57 [4], 1000 nM | 6.83 | –
E57 [4], 3000 nM | 7.19 | –
E57 [11], 4.1 nM | – | 0.583
E57 [11], 12.3 nM | – | 0.325
E57 [11], 37 nM | – | 0.194
E57 [11], 111.1 nM | – | 0.178
E57 [11], 333.3 nM | – | 0.149
E57 [11], 1000 nM | – | 0.0932
E57 [11], 3000 nM | – | 0.0598
FT3469 [7], 4.1 nM | 1.72 | –
FT3469 [7], 12.3 nM | 1.77 | –
FT3469 [7], 37 nM | 2.11 | –
FT3469 [7], 111.1 nM | 2.17 | –
FT3469 [7], 333.3 nM | 2.57 | –
FT3469 [7], 1000 nM | 4.08 | –
FT3469 [7], 3000 nM | 7.48 | –
FT3469 [14], 4.1 nM | – | 0.644
FT3469 [14], 12.3 nM | – | 0.625
FT3469 [14], 37 nM | – | 0.487
FT3469 [14], 111.1 nM | – | 0.606
FT3469 [14], 333.3 nM | – | 0.593
FT3469 [14], 1000 nM | – | 0.0798
FT3469 [14], 3000 nM | – | 0.0266

C[C@]12CC[C@H](O)C[C@H]1CC[C@@H]1[C@@H]2C[C@@H](O)[C@]2(C)[C@@H](C3=CC(=O)OC3)CC[C@]12O [Digoxigenin]
Details | phenotypic distance | surviving fraction
E13 [3], 4.1 nM | 0.193 | –
E13 [3], 12.3 nM | 0.571 | –
E13 [3], 37 nM | 0.503 | –
E13 [3], 111.1 nM | 0.911 | –
E13 [3], 333.3 nM | 2.63 | –
E13 [3], 1000 nM | 3.73 | –
E13 [3], 3000 nM | 4.86 | –
E13 [10], 4.1 nM | – | 0.965
E13 [10], 12.3 nM | – | 1.05
E13 [10], 37 nM | – | 0.962
E13 [10], 111.1 nM | – | 0.89
E13 [10], 333.3 nM | – | 0.662
E13 [10], 1000 nM | – | 0.426
E13 [10], 3000 nM | – | 0.354
E21 [1], 4.1 nM | 0.486 | –
E21 [1], 12.3 nM | 0.815 | –
E21 [1], 37 nM | 0.94 | –
E21 [1], 111.1 nM | 1.64 | –
E21 [1], 333.3 nM | 3.18 | –
E21 [1], 1000 nM | 3.95 | –
E21 [1], 3000 nM | 6.35 | –
E21 [8], 4.1 nM | – | 0.996
E21 [8], 12.3 nM | – | 0.951
E21 [8], 37 nM | – | 0.891
E21 [8], 111.1 nM | – | 0.887
E21 [8], 333.3 nM | – | 0.582
E21 [8], 1000 nM | – | 0.473
E21 [8], 3000 nM | – | 0.331
E28 [5], 4.1 nM | 0.383 | –
E28 [5], 12.3 nM | 0.587 | –
E28 [5], 37 nM | 0.46 | –
E28 [5], 111.1 nM | 0.569 | –
E28 [5], 333.3 nM | 0.59 | –
E28 [5], 1000 nM | 1.04 | –
E28 [5], 3000 nM | 2.24 | –
E28 [12], 4.1 nM | – | 1.01
E28 [12], 12.3 nM | – | 1.11
E28 [12], 37 nM | – | 0.883
E28 [12], 111.1 nM | – | 0.991
E28 [12], 333.3 nM | – | 1.02
E28 [12], 1000 nM | – | 0.998
E28 [12], 3000 nM | – | 0.537
E31 [6], 4.1 nM | 0.558 | –
E31 [6], 12.3 nM | 0.764 | –
E31 [6], 37 nM | 0.809 | –
E31 [6], 111.1 nM | 0.828 | –
E31 [6], 333.3 nM | 1.83 | –
E31 [6], 1000 nM | 3.63 | –
E31 [6], 3000 nM | 4.82 | –
E31 [13], 4.1 nM | – | 1.01
E31 [13], 12.3 nM | – | 0.832
E31 [13], 37 nM | – | 0.916
E31 [13], 111.1 nM | – | 0.996
E31 [13], 333.3 nM | – | 0.946
E31 [13], 1000 nM | – | 0.603
E31 [13], 3000 nM | – | 0.348
E34 [2], 4.1 nM | 0.591 | –
E34 [2], 12.3 nM | 0.506 | –
E34 [2], 37 nM | 0.531 | –
E34 [2], 111.1 nM | 0.98 | –
E34 [2], 333.3 nM | 1.57 | –
E34 [2], 1000 nM | 3.22 | –
E34 [2], 3000 nM | 4.52 | –
E34 [9], 4.1 nM | – | 0.86
E34 [9], 12.3 nM | – | 0.942
E34 [9], 37 nM | – | 0.861
E34 [9], 111.1 nM | – | 1.04
E34 [9], 333.3 nM | – | 0.767
E34 [9], 1000 nM | – | 0.63
E34 [9], 3000 nM | – | 0.568
E57 [4], 4.1 nM | 0.552 | –
E57 [4], 12.3 nM | 1.14 | –
E57 [4], 37 nM | 0.391 | –
E57 [4], 111.1 nM | 0.908 | –
E57 [4], 333.3 nM | 3.27 | –
E57 [4], 1000 nM | 4.63 | –
E57 [4], 3000 nM | 6.24 | –
E57 [11], 4.1 nM | – | 0.942
E57 [11], 12.3 nM | – | 0.969
E57 [11], 37 nM | – | 1.05
E57 [11], 111.1 nM | – | 0.975
E57 [11], 333.3 nM | – | 0.663
E57 [11], 1000 nM | – | 0.346
E57 [11], 3000 nM | – | 0.238
FT3469 [7], 4.1 nM | 1 | –
FT3469 [7], 12.3 nM | 1.82 | –
FT3469 [7], 37 nM | 0.883 | –
FT3469 [7], 111.1 nM | 1.27 | –
FT3469 [7], 333.3 nM | 2.84 | –
FT3469 [7], 1000 nM | 4.38 | –
FT3469 [7], 3000 nM | 3.34 | –
FT3469 [14], 4.1 nM | – | 0.774
FT3469 [14], 12.3 nM | – | 0.984
FT3469 [14], 37 nM | – | 1.03
FT3469 [14], 111.1 nM | – | 0.968
FT3469 [14], 333.3 nM | – | 0.801
FT3469 [14], 1000 nM | – | 0.652
FT3469 [14], 3000 nM | – | 0.62
